Target: T1, CDK2/cyclin A1 (Homo sapiens, UniProt P24941)
T1 construct: purchased Thermo Fisher Scientific (Life Technologies) SelectScreen
Test: SelectScreen LanthaScreen
Assay type: binding
Conditions: 1 µM
Procedure, shortened: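 SelectScreen broad panel; activity (Z'LYTE, Adapta) plus binding formats. ATP: Km app for CSF1R Z'LYTE; 10 for CAMK1 Adapta. Readout = % per kinase.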

## CN(C(=O)CN1CCOCC1)c1ccc2sc3c(-c4cccc5c(=O)cc(N6CC7CCC(C6)O7)oc45)cccc3c2c1 [NU5455]
  % displacement: -1.6%

From article PMC6934184, “Selective DNA-PKcs inhibition extends the therapeutic index of localized radiotherapy and chemotherapy” (The Journal of Clinical Investigation, 2019)
